Results published in patent US20220142164A1, “HERBICIDAL COMPOUNDS” (SYNGENTA CROP PROTECTION AG, priority 2019, published 2022).

Key:
Assay in all cases: Post-emergence efficacy, glasshouse pot test
Type in all cases: in vivo
Details in all cases: 312 h, post-emergence spray, Application Rate 500 g/Ha, evaluated after 13 days, 100=total damage to plant, 0=no damage to plant
Setaria faberi (SETFA) = tested on: Setaria faberi (SETFA)
Description: (§1) Seeds of a variety of test species were sown in standard soil in pots. After cultivation for 14 days (post-emergence) under controlled conditions in a glasshouse (at 24/16° C., day/night; 14 hours light; 65% humidity), the plants were sprayed with an aqueous spray solution derived from the dissolution of the technical active ingredient formula (I) in a small amount of acetone and a special solvent and emulsifier mixture referred to as IF50 (11.12% Emulsogen EL360 TM+44.44% N-methylpyrrolidone+44.44% Dowanol DPM glycol ether), to create a 50 g/I solution which was then diluted to required concentration using 0.25% or 1% Empicol ESC70 (Sodium lauryl ether sulphate)+1% ammonium sulphate as diluent. The test plants were then grown in a glasshouse under controlled conditions (at 24/16° C., day/night; 14 hours light; 65% humidity) and watered twice daily. After 13 days the test was evaluated (100=total damage to plant; 0=no damage to plant). Ipomoea hederacea (IPOHE), Euphorbia heterophylla (EPHHL), Chenopodium album (CHEAL), Amaranthus palmeri (AMAPA), Lolium perenne (LOLPE), Digitaria sanguinalis (DIGSA), Eleusine indica (ELEIN), Echinochloa crus-galli (ECHCG), Setaria faberi (SETFA)

[1] = tested on: Chenopodium album (CHEAL)
Description: as §1

[2] = tested on: Amaranthus palmeri (AMAPA)
Description: as §1

[3] = tested on: Euphorbia heterophylla (EPHHL)
Description: as §1

[4] = tested on: Ipomoea hederacea (IPOHE)
Description: as §1

Eleusine indica (ELEIN) = tested on: Eleusine indica (ELEIN)
Description: as §1

[5] = tested on: Digitaria sanguinalis (DIGSA)
Description: as §1

Lolium perenne (LOLPE) = tested on: Lolium perenne (LOLPE)
Description: as §1

[6] = tested on: Echinochloa crus-galli (ECHCG)
Description: as §1

Row | SMILES | pest or weed control at 500 g/ha (Setaria faberi (SETFA)) [%] | pest or weed control at 500 g/ha [1] [%] | pest or weed control at 500 g/ha [2] [%] | pest or weed control at 500 g/ha [3] [%] | pest or weed control at 500 g/ha [4] [%] | pest or weed control at 500 g/ha (Eleusine indica (ELEIN)) [%] | pest or weed control at 500 g/ha [5] [%] | pest or weed control at 500 g/ha (Lolium perenne (LOLPE)) [%] | pest or weed control at 500 g/ha [6] [%]
1 | COC(=O)CN(C)C(=O)C[n+]1ccc(-c2ncns2)cc1 [Compound A1] | 0 | 10 | 0 | 10 | 10 | 10 | 0 | 10 | 0
2 | COC(=O)CCNC(=O)C[n+]1ccc(-c2ncns2)cc1 [Compound A2, methyl 3-[[-2-[4-(1,2,4-thiadiazol-5-yl)pyridin-1-ium-1-yl]acetyl]amino]propanoate bromide] | 50 | 90 | 80 | 40 | 50 | 30 | 40 | 10 | 20
3 | O=C(O)CNC(=O)C[n+]1ccc(-c2ncns2)cc1 [Compound A3, 2-[[2-[4-(1,2,4-thiadiazol-5-yl)pyridin-1-ium-1-yl]acetyl]amino]acetic acid chloride] | 100 | 90 | 90 | 100 | 100 | 100 | 100 | 70 | 100
4 | O=C(O)CCNC(=O)C[n+]1ccc(-c2ncns2)cc1 [Compound A4, 3-[[2-[4-(1,2,4-thiadiazol-5-yl)pyridin-1-ium-1-yl]acetyl]amino]propanoic Acid Chloride] | 70 | 90 | 90 | 90 | 90 | 100 | 100 | 90 | 70
5 | COC(=O)CNC(=O)C[n+]1ccc(-c2ncns2)cc1 [Compound A5, methyl 2-[[2-[4-(1,2,4-thiadiazol-5-yl)pyridin-1-ium-1-yl]acetyl]amino]acetate bromide] | 60 | 90 | 90 | 80 | 80 | 100 | 100 | 30 | 90
6 | CN(CC(=O)O)C(=O)C[n+]1ccc(-c2ncns2)cc1 [Compound A6] | 40 | 90 | 100 | 90 | 40 | 20 | 90 | 40 | 60
7 | CC(NC(=O)C[n+]1ccc(-c2ncns2)cc1)C(=O)O (stereo not drawn) [Compound A7] | 100 | 90 | 100 | 100 | 100 | 100 | 100 | 80 | 100
8 | COC(=O)C(C)NC(=O)C[n+]1ccc(-c2ncns2)cc1 (stereo not drawn) [Compound A8] | 100 | 90 | 100 | 100 | 100 | 100 | 100 | 60 | 100
9 | O=C(C[n+]1ccc(-c2ncns2)cc1)NCCS(=O)(=O)[O-] [Compound A9, 2-[[2-[4-(1,2,4-thiadiazol-5-yl)pyridin-1-ium-1-yl]acetyl]amino]ethanesulfonate] | 60 | 70 | 90 | 90 | 60 | 50 | 30 | 30 | 30
10 | CN(CCS(=O)(=O)[O-])C(=O)C[n+]1ccc(-c2ncns2)cc1 [Compound A10] | 50 | 20 | 90 | 80 | 50 | 40 | 40 | 20 | 30
11 | O=C(O)CNC(=O)CC[n+]1ccc(-c2ncns2)cc1 [Compound A13] | 80 | 30 | 100 | 60 | 20 | 70 | 70 | 40 | 50
12 | O=C(CC[n+]1ccc(-c2ncns2)cc1)NCS(=O)(=O)[O-] [Compound A14, [3-[4-(1,2,4-thiadiazol-5-yl)pyridin-1-ium-1-yl]propanoylamino]methanesulfonate] | 70 | 90 | 100 | 20 | 30 | 60 | 100 | 10 | 70
13 | O=C(O)CCSC[n+]1ccc(-c2ncns2)cc1 [Compound A15, 3-[[4-(1,2,4-thiadiazol-5-yl)pyridin-1-ium-1-yl]methylsulfanyl]propanoic acid chloride] | 100 | 90 | 100 | 40 | 40 | 90 | 100 | 50 | 100
14 | O=C(C[n+]1ccc(-c2ncns2)cc1)NC1(C(=O)O)CC1 [Compound A16] | 100 | 90 | 100 | 90 | 50 | 40 | 80 | 50 | 90
15 | CC(C)(NC(=O)C[n+]1ccc(-c2ncns2)cc1)C(=O)O [Compound A17] | 80 | 50 | 100 | 70 | 40 | 60 | 80 | 30 | 60
16 | O=C(O)CCS(=O)(=O)C[n+]1ccc(-c2ncns2)cc1 [Compound A18, 3-[[4-(1,2,4-thiadiazol-5-yl)pyridin-1-ium-1-yl]methylsulfonyl]propanoic acid 2,2,2-trifluoroacetate] | 100 | 90 | 100 | 60 | 70 | 100 | 100 | 40 | 90
17 | O=C(O)CS(=O)(=O)C[n+]1ccc(-c2ncns2)cc1 [Compound A19] | 20 | 50 | 40 | 30 | 10 | 30 | 30 | 20 | 30
